Laboratory results from US9670227B2, “Thienopyrimidine derivatives, a process for their preparation and pharmaceutical compositions containing them” (LES LABORATOIRES SERVIER, priority 2013, dated 2017).

Key:
[1] = test system: H929 multiple myeloma tumour line; test: In vitro cytotoxicity, Microculture Tetrazolium Assay; assay type: cell-based; conditions: Homo sapiens, NCI-H929, 48 h, H929 cells, 48 hours exposure, MTT; read-out: IC50 (μM) MTT H929
Method: The cytotoxicity studies were carried out on the H929 multiple myeloma tumour line.
The cells are distributed onto microplates and exposed to the test compounds for 48 hours.

[2] = target: Mcl-1 protein (UniProtKB primary accession number: Q07820) (Homo sapiens, UniProt Q07820); test: Inhibition of Mcl-1 by fluorescence polarisation, Method 1; assay type: binding; conditions: fluorescence polarisation test; Method 2 values are underlined in the patent (underlining not visible here); read-out: IC50 (M) Mcl-1 FP
Sequence of Mcl-1 protein (Q07820 whole entry): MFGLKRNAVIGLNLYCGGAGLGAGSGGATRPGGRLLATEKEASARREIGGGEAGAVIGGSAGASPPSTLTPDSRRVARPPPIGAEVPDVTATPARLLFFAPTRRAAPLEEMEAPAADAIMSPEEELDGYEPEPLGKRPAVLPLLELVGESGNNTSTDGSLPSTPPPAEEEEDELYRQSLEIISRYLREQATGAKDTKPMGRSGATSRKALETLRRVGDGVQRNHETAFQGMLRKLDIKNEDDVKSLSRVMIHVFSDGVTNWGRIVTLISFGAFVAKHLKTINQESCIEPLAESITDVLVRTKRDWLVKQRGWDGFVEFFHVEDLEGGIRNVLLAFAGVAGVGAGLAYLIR
How it was run: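 FP competition, 11-point compound titration in 5% final DMSO; protein and labelled probe at 5 nM and 1 nM final in HEPES/NaCl/Tween 20 buffer, pH 7.4.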

IC50 [2] [M] | SMILES | IC50 [1] [µM]
3.9e-09 | Cc1c(-c2c(-c3ccco3)sc3ncnc(OC(Cc4ccccc4OCc4ccnn4C4CCCC4)C(=O)O)c23)ccc(OCCN2CCN(C)CC2)c1Cl [Example 262, (2R)-2-{[(5Sa)-5-{3-chloro-2-methyl-4-[2-(4-methylpiperazin-1-yl)ethoxy]phenyl}-6-(furan-2-yl)thieno[2,3-d]pyrimidin-4-yl]oxy}-3-{2-[(1-cyclopentyl-1H-pyrazol-5-yl)methoxy]phenyl}propanoic acid] | 0.023
2e-09 | Cc1c(-c2c(-c3ccco3)sc3ncnc(OC(Cc4ccccc4OCc4ccnn4-c4ccccc4)C(=O)O)c23)ccc(OCCN2CCN(C)CC2)c1Cl [Example 263, (2R)-2-{[(5Sa)-5-{3-chloro-2-methyl-4-[2-(4-methylpiperazin-1-yl)ethoxy]phenyl}-6-(furan-2-yl)thieno[2,3-d]pyrimidin-4-yl]oxy}-3-{2-[(1-phenyl-1H-pyrazol-5-yl)methoxy]phenyl}propanoic acid] | 0.126
9.1e-09 | CCn1nccc1COc1ccccc1CC(Oc1ncnc2sc(-c3ccco3)c(-c3ccc(OCCN4CCN(C)CC4)c(Cl)c3C)c12)C(=O)O [Example 264, (2R)-2-{[(5Sa)-5-{3-chloro-2-methyl-4-[2-(4-methylpiperazin-1-yl)ethoxy]phenyl}-6-(furan-2-yl)thieno[2,3-d]pyrimidin-4-yl]oxy}-3-{2-[(1-ethyl-1H-pyrazol-5-yl)methoxy]phenyl}propanoic acid] | 0.034
5.7e-09 | Cc1c(-c2c(-c3ccco3)sc3ncnc(OC(Cc4ccccc4OCC4CCO4)C(=O)O)c23)ccc(OCCN2CCN(C)CC2)c1Cl [Example 266, (2R)-2-{[(5Sa)-5-{3-chloro-2-methyl-4-[2-(4-methylpiperazin-1-yl)ethoxy]phenyl}-6-(furan-2-yl)thieno[2,3-d]pyrimidin-4-yl]oxy}-3-[2-(oxetan-2-ylmethoxy)phenyl]propanoic acid] | 0.093
8.8e-09 | Cc1c(-c2c(-c3ccco3)sc3ncnc(OC(Cc4ccccc4OCc4cn(C)cn4)C(=O)O)c23)ccc(OCCN2CCN(C)CC2)c1Cl [Example 267, (2R)-2-{[(5Sa)-5-{3-chloro-2-methyl-4-[2-(4-methylpiperazin-1-yl)ethoxy]phenyl}-6-(furan-2-yl)thieno[2,3-d]pyrimidin-4-yl]oxy}-3-{2-[(1-methyl-1H-imidazol-4-yl)methoxy]phenyl}propanoic acid] | 1.6
8.2e-09 | Cc1cnc(COc2ccccc2CC(Oc2ncnc3sc(-c4ccco4)c(-c4ccc(OCCN5CCN(C)CC5)c(Cl)c4C)c23)C(=O)O)cn1 [Example 268, (2R)-2-{[(5Sa)-5-{3-chloro-2-methyl-4-[2-(4-methylpiperazin-1-yl)ethoxy]phenyl}-6-(furan-2-yl)thieno[2,3-d]pyrimidin-4-yl]oxy}-3-{2-[(5-methylpyrazin-2-yl)methoxy]phenyl}propanoic acid] | 0.086
1.1e-08 | Cc1c(-c2c(-c3ccco3)sc3ncnc(OC(Cc4ccccc4OCc4cnc(Cl)cn4)C(=O)O)c23)ccc(OCCN2CCN(C)CC2)c1Cl [Example 269, (2R)-2-{[(5Sa)-5-{3-chloro-2-methyl-4-[2-(4-methylpiperazin-1-yl)ethoxy]phenyl}-6-(furan-2-yl)thieno[2,3-d]pyrimidin-4-yl]oxy}-3-{2-[(5-chloropyrazin-2-yl)methoxy]phenyl}propanoic acid] | 0.069
1.2e-08 | COc1cnc(COc2ccccc2CC(Oc2ncnc3sc(-c4ccco4)c(-c4ccc(OCCN5CCN(C)CC5)c(Cl)c4C)c23)C(=O)O)cn1 [Example 270, (2R)-2-{[(5Sa)-5-{3-chloro-2-methyl-4-[2-(4-methylpiperazin-1-yl)ethoxy]phenyl}-6-(furan-2-yl)thieno[2,3-d]pyrimidin-4-yl]oxy}-3-{2-[(5-methoxypyrazin-2-yl)methoxy]phenyl}propanoic acid] | 0.068
1.6e-08 | Cc1ncc(COc2ccccc2CC(Oc2ncnc3sc(-c4ccco4)c(-c4ccc(OCCN5CCN(C)CC5)c(Cl)c4C)c23)C(=O)O)cn1 [Example 271, (2R)-2-{[(5Sa)-5-{3-chloro-2-methyl-4-[2-(4-methylpiperazin-1-yl)ethoxy]phenyl}-6-(furan-2-yl)thieno[2,3-d]pyrimidin-4-yl]oxy}-3-{2-[(2-methylpyrimidin-5-yl)methoxy]phenyl}propanoic acid] | 0.197
2.2e-08 | Cc1c(-c2c(-c3ccco3)sc3ncnc(OC(Cc4ccccc4OCc4cnc(N5CCCC5)nc4)C(=O)O)c23)ccc(OCCN2CCN(C)CC2)c1Cl [Example 272, (2R)-2-{[(5Sa)-5-{3-chloro-2-methyl-4-[2-(4-methylpiperazin-1-yl)ethoxy]phenyl}-6-(furan-2-yl)thieno[2,3-d]pyrimidin-4-yl]oxy}-3-(2-{[2-(pyrrolidin-1-yl)pyrimidin-5-yl]methoxy}phenyl)propanoic acid] | 0.822
9.2e-09 | Cc1c(-c2c(-c3ccco3)sc3ncnc(OC(Cc4ccccc4OCc4cnc(N5CCOCC5)nc4)C(=O)O)c23)ccc(OCCN2CCN(C)CC2)c1Cl [Example 273, (2R)-2-{[(5Sa)-5-{3-chloro-2-methyl-4-[2-(4-methylpiperazin-1-yl)ethoxy]phenyl}-6-(furan-2-yl)thieno[2,3-d]pyrimidin-4-yl]oxy}-3-(2-{[2-(morpholin-4-yl)pyrimidin-5-yl]methoxy}phenyl)propanoic acid] | 0.905
7.7e-09 | COc1ncc(COc2ccccc2CC(Oc2ncnc3sc(-c4ccco4)c(-c4ccc(OCCN5CCN(C)CC5)c(Cl)c4C)c23)C(=O)O)cn1 [Example 274, (2R)-2-{[(5Sa)-5-{3-chloro-2-methyl-4-[2-(4-methylpiperazin-1-yl)ethoxy]phenyl}-6-(furan-2-yl)thieno[2,3-d]pyrimidin-4-yl]oxy}-3-{2-[(2-methoxypyrimidin-5-yl)methoxy]phenyl}propanoic acid] | 0.131
4.5e-09 | Cc1c(-c2c(-c3ccco3)sc3ncnc(OC(Cc4ccccc4OCc4cnccn4)C(=O)O)c23)ccc(OCCN2CCN(C)CC2)c1Cl [Example 275, (2R)-2-{[(5Sa)-5-{3-chloro-2-methyl-4-[2-(4-methylpiperazin-1-yl)ethoxy]phenyl}-6-(furan-2-yl)thieno[2,3-d]pyrimidin-4-yl]oxy}-3-[2-(pyrazin-2-ylmethoxy)phenyl]propanoic acid] | 0.051
4.8e-09 | Cc1c(-c2c(-c3ccco3)sc3ncnc(OC(Cc4ccccc4OCc4cncnc4)C(=O)O)c23)ccc(OCCN2CCN(C)CC2)c1Cl [Example 277, (2R)-2-{[(5Sa)-5-{3-chloro-2-methyl-4-[2-(4-methylpiperazin-1-yl)ethoxy]phenyl}-6-(furan-2-yl)thieno[2,3-d]pyrimidin-4-yl]oxy}-3-[2-(pyrimidin-5-ylmethoxy)phenyl]propanoic acid] | 0.07
6.7e-09 | Cc1c(-c2c(-c3ccco3)sc3ncnc(OC(Cc4ccccc4OCc4cncs4)C(=O)O)c23)ccc(OCCN2CCN(C)CC2)c1Cl [Example 278, (2R)-2-{[(5Sa)-5-{3-chloro-2-methyl-4-[2-(4-methylpiperazin-1-yl)ethoxy]phenyl}-6-(furan-2-yl)thieno[2,3-d]pyrimidin-4-yl]oxy}-3-[2-(1,3-thiazol-5-ylmethoxy)phenyl]propanoic acid] | 0.202
8e-09 | Cc1c(-c2c(-c3ccco3)sc3ncnc(OC(Cc4ccccc4OCc4cnn(C)c4)C(=O)O)c23)ccc(OCCN2CCN(C)CC2)c1Cl [Example 279, (2R)-2-{[(5Sa)-5-{3-chloro-2-methyl-4-[2-(4-methylpiperazin-1-yl)ethoxy]phenyl}-6-(furan-2-yl)thieno[2,3-d]pyrimidin-4-yl]oxy}-3-{2-[(1-methyl-1H-pyrazol-4-yl)methoxy]phenyl}propanoic acid] | 0.406
4e-09 | Cc1c(-c2c(-c3ccco3)sc3ncnc(OC(Cc4ccccc4OCc4cocn4)C(=O)O)c23)ccc(OCCN2CCN(C)CC2)c1Cl [Example 280, (2R)-2-{[(5Sa)-5-{3-chloro-2-methyl-4-[2-(4-methylpiperazin-1-yl)ethoxy]phenyl}-6-(furan-2-yl)thieno[2,3-d]pyrimidin-4-yl]oxy}-3-[2-(1,3-oxazol-4-ylmethoxy)phenyl]propanoic acid] | 0.071
7.9e-09 | Cc1c(-c2c(-c3ccco3)sc3ncnc(OC(Cc4ccccc4OCc4cscn4)C(=O)O)c23)ccc(OCCN2CCN(C)CC2)c1Cl [Example 281, (2R)-2-{[(5Sa)-5-{3-chloro-2-methyl-4-[2-(4-methylpiperazin-1-yl)ethoxy]phenyl}-6-(furan-2-yl)thieno[2,3-d]pyrimidin-4-yl]oxy}-3-[2-(1,3-thiazol-4-ylmethoxy)phenyl]propanoic acid] | 0.081
4e-08 | Cc1c(-c2c(-c3ccco3)sc3ncnc(OC(Cc4ccccc4OCc4c5ccccc5nn4C)C(=O)O)c23)ccc(OCCN2CCN(C)CC2)c1Cl [Example 282, (2R)-2-{[(5Sa)-5-{3-chloro-2-methyl-4-[2-(4-methylpiperazin-1-yl)ethoxy]phenyl}-6-(furan-2-yl)thieno[2,3-d]pyrimidin-4-yl]oxy}-3-{2-[(2-methyl-2H-indazol-3-yl)methoxy]phenyl}propanoic acid] | 0.601
2.6e-08 | Cc1c(-c2c(-c3ccco3)sc3ncnc(OC(Cc4ccccc4OCc4ncc(-c5ccccc5)cn4)C(=O)O)c23)ccc(OCCN2CCN(C)CC2)c1Cl [Example 283, (2R)-2-{[(5Sa)-5-{3-chloro-2-methyl-4-[2-(4-methylpiperazin-1-yl)ethoxy]phenyl}-6-(furan-2-yl)thieno[2,3-d]pyrimidin-4-yl]oxy}-3-{2-[(5-phenylpyrimidin-2-yl)methoxy]phenyl}propanoic acid] | 0.25
